Results: patent US9408393B2, “Bismuth-thiols as antiseptics for agricultural, industrial and other uses” (Microbion Corporation, priority 2010, dated 2016)
Where two headings read alike, the source gives them in different places.

Assays:
S. epidermidis [1] = test: Broth dilution MIC/MBC, BT-antibiotic combinations; assay type: cell-based, Staphylococcus epidermidis; settings: S. epidermidis S2400-1
Procedure: Materials & Methods. Susceptibility studies were performed by broth dilution in 96-well tissue culture plates (Nalge Nunc International, Denmark) in accordance with NCCLS protocols (National Committee for Clinical Laboratory Standards. (1997). Methods for Dilution Antimicrobial Susceptibility Tests for Bacteria that Grow Aerobically: Approved Standard M7-A2 and Informational Supplement M100-S10. NCCLS, Wayne, Pa., USA).
Briefly, overnight bacterial cultures were used to prepare 0.5 McFarland standard suspensions, which were further diluted 1:50 (˜2×10^6 cfu/mL) in cation-adjusted Mueller-Hinton broth medium (BBL, Cockeysville, Md., USA). BTs (prepared as described above) and antibiotics were added at incremental concentrations, keeping the final volume constant at 0.2 mL. Cultures were incubated for 24 h at 37° C. and turbidity was assessed by absorption at 630 nm using an ELISA plate reader (Biotek Instruments, Winooski, Vt., USA) according to the manufacturer's recommendations. […] Viable bacterial counts (cfu/mL) were determined by standard plating on nutrient agar.
The checkerboard method was used to assess the activity of antimicrobial combinations. The fractional inhibitory concentration index (FICI) and the fractional bactericidal concentration index (FBCI) were calculated, according to Eliopoulos et al. (Eliopoulos and Moellering, (1996) Antimicrobial combinations. In Antibiotics in Laboratory Medicine (Lorian, V., Ed.), pp. 330-96, Williams and Wilkins, Baltimore, Md., USA). Synergy was defined as an FICI or FBCI index of […], no interaction at >0.5-4 and antagonism at >4 (Odds, F C (2003) Synergy, antagonism, and what the chequerboard puts between them. Journal of Antimicrobial Chemotherapy 52:1). Synergy was also defined conventionally as ≧4-fold decrease in antibiotic concentration.

[2] = tested on: S. epidermidis S2400-1 biofilm; test: Biofilm prevention, BisEDT-antibiotic combinations; assay type: cell-based, Staphylococcus epidermidis
Procedure: (§1) S. epidermidis grown in TSB+2% glucose in polystyrene plates for 48 h at 37° C. Gatifloxacin (GF), clindamycin (CM), minocycline (MC), gentamicin (GM), vancomycin (VM), cefazolin (CZ), nafcillin (NC), and rifampicin (RP). […]

MRSA clinical isolates [3] = test: Broth dilution MIC in BHIG/X medium with subMIC BisEDT; assay type: cell-based, Staphylococcus aureus; settings: for MIC: Staphylococcus aureus, MRSA, 12 MRSA clinical isolates, BHIG/X, mean ± SD, read-out: MIC
Procedure: (§2) Broth dilution antimicrobial susceptibility studies were performed against 12 MRSA strains using several antibiotics combined with subMIC levels of BisEDT (Table 18). Both the biofilm-prevention concentration (BPC) and the minimum inhibitory concentration (MIC) were determined in a special biofilm culture medium (BHIG/X). […] These strains were already sensitive to vancomycin, but were made considerably moreso in the presence of subMIC BisEDT.
In this particular study, the data indicated synergy between BisEDT and cefepime (FIC<0.5), with many of the isolates at the breakpoint for sensitivity.

[4] = tested on: MRSA clinical isolates biofilm; test: Biofilm-prevention concentration (BPC) in BHIG/X medium with subMIC BisEDT; assay type: cell-based, Staphylococcus aureus; settings: 12 MRSA clinical isolates, mean ± SD
Procedure: as §2

[5] = tested on: lawn of MRSA (Methicillin-resistant S. aureus); test: Antibiotic-soaked discs on bacterial lawn with and without BisEDT; assay type: cell-based, Staphylococcus aureus; settings: antibiotic discs combined with BisEDT 0.05 μg/ml
Procedure: FIGS. 4A and 4B show the subinhibitory BisEDT reversing antibiotic-resistance to several antibiotics. Effects of antibiotics with and without BisEDT (0.05 μg/ml) on a lawn of MRSA (Methicillin-resistant S. aureus) is shown. […] [GM=gentamicin, CZ=cefazolin, FEP=cefepime, IPM=imipenim, SAM=ampicillin/sulbactam, LVX=levofloxacin.

S. epidermidis biofilm = test: Biofilm prevention concentration (BPC), BisEDT and antibiotics; assay type: cell-based, Staphylococcus epidermidis; settings: 0.05 μg/ml BisEDT
Procedure: as §1

S. epidermidis [6] = test: Growth inhibition (MIC) and MBC, BisEDT and antibiotics; assay type: cell-based, Staphylococcus epidermidis
Description: Results are expressed as the mean change in MIC (dilution steps) with increasing BisEDT (n=3). See legend in FIG. 5 for antibiotic definitions.
The MIC change was most pronounced for clindamycin and gentamicin, followed by vancomycin, cefazolin, minocycline, gatifloxacin and nafcillin, with rifampicin unaffected.
Minimum bactericidal concentration (MBC) for most antibiotics tested against S. epidermidis decreased slightly with subMIC BisEDT. […] Clindamycin is a bacteriostatic agent, which explains its lack of bactericidal activity. Cefazolin resistance was reversed with respect to the MBC [Domenico et al., 2003]. These effects were additive.

MRSA clinical isolates [7] = settings: cited from earlier work; for MIC Standards, R (resistance): Standard MIC breakpoint for resistance; for MIC Standards, S (antibiotic sensitivity): Standard MIC breakpoint for sensitivity
Escherichia coli = test: Single-point BisEDT-antibiotic combination FICI; assay type: cell-based
Klebsiella pneumoniae = test: Single-point BisEDT-antibiotic combination FICI; assay type: cell-based; settings: KP 1231
Pseudomonas aeruginosa = test: Single-point BisEDT-antibiotic combination FICI; assay type: cell-based; settings: PA 1380
Burkholderia cepacia = test: Single-point BisEDT-antibiotic combination FICI; assay type: cell-based; settings: Bcep 1756
Bukholderia multivorans = test: Single-point BisEDT-antibiotic combination FICI; assay type: cell-based; settings: Bmult 5665
Acinetobacter baumanii = test: Single-point BisEDT-antibiotic combination FICI; assay type: cell-based; settings: Abau 2594
P. aeruginosa = test: Checkerboard broth microdilution MIC and FICI; assay type: cell-based, Pseudomonas aeruginosa; settings: compound alone; for MIC: Pseudomonas aeruginosa, read-out: MIC (μg/mL) Alone
Procedure: The effects of combinations of microparticulate Bis-EDT and four Bis-EDT analogs prepared as described above, and other agents against representative strains of several Gram-negative pathogenic bacteria were tested. A modification of a common laboratory method was used to determine synergism (FICI≦0.5), enhancement (0.5<FICI≦1.0), antagonism (FICI>4.0) and indifference (1.0<FICI≦4.0) used fractional inhibitory concentrations (FICs) and FIC indices (FICI) (Eliopoulos G and R Moellering. 1991. Antimicrobial combinations. In Antibiotics in Laboratory Medicine, Third Edition, edited by V Lorian. Williams and Wilkins, Baltimore, Md., pp. 432-492; Odds, 2003 J. Antimicrob. Chemother. 52(1):1). The checkerboard technique was used to determine FIC indices and was employed in this study.
Stock solutions of all test articles were prepared at 40× the final target concentration in the appropriate solvent. […] The final drug concentrations in the FIC assay plates were set to bracket the MIC value of each agent for each test organism, unless the strain was totally resistant to the test agent. […] The test organisms were originally received from clinical sources, or from the American Type Culture Collection. Upon receipt, the isolates were streaked onto Tryptic Soy Agar II (TSA). Colonies were harvested from these plates and a cell suspension was prepared in an appropriate broth growth medium containing cryoprotectant. Aliquots were then frozen at −80° C. The frozen seeds of the organisms to be tested in a given assay were thawed, streaked for isolation onto TSA plates, and incubated at 35° C. All organisms were tested in Mueller Hinton II Broth (Becton Dickinson, Lot No. 9044411). The broth was prepared at 1.05× normal weight/volume to offset the 5% volume of the drugs in the final test plates.
Minimal Inhibitory Concentration (MIC) values were previously determined using the broth microdilution method for aerobic bacteria (Clinical and Laboratory Standards Institute (CLSI). Methods for Dilution Antimicrobial Susceptibility Tests for Bacteria That Grow Aerobically; Approved Standard—Eighth Edition. CLSI document M07-A8 [ISBN 1-56238-689-1]. Clinical and Laboratory Standards Institute, 940 West Valley Road, Suite 1400, Wayne, Pa. 19087-1898 USA, 2009.).
FIC values were determined using a broth microdilution method previously described (Sweeney et al., 2003 Antimicrob. Agents Chemother. 47(6):1902-1906). To prepare the test plates, automated liquid handlers (Multidrop 384, Labsystems, Helsinki, Finland; Biomek 2000 and Multimek 96, Beckman Coulter, Fullerton Calif.) were used to conduct serial dilutions and liquid transfers.
The appropriate wells of standard 96-well microdilution plates (Falcon 3918) were filled with 150 μL of the appropriate solvent in columns 2-12 using the Multidrop 384. Three hundred microliters of each secondary test drug was added to each well in Column 1 of the plates. These plates were used to prepare the drug “mother plates” which provided the serial drug dilutions for the drug combination plates. The Biomek 2000 was used to transfer 150 μL of each secondary drug solution (40×) from the wells in Column 1 of the mother plate and to make eleven 2-fold serial dilutions. Mother plates of Bis-EDT (and analogs) were serial diluted top to bottom by hand, using a multichannel pipette. Two mother plates, one for each secondary drug and one for Bis-EDT (or analogs), were combined to form a “checkerboard” pattern by transfer of equal volumes (using a multi-channel pipette) to the drug combination plate. Row H and Column 12 each contained serial dilutions of one of the agents alone for determination of the MIC.
The “daughter plates” were loaded with 180 μL of test medium using the Multidrop 384. Then, the Multimek 96 was used to transfer 10 μL of drug solution from each well of the drug combination mother plate to each corresponding well of the daughter plate in a single step.

Cc1nnc(SCC2=C(C(=O)O)N3C(=O)[C@@H](NC(=O)Cn4cnnn4)[C@H]3SC2)s1 [Cefazolin, cefazolin]
Synergy, MBC (S. epidermidis [1]): + (Synergy was also defined conventionally as ≧4-fold decrease in antibiotic concentration)
Synergy, MIC (S. epidermidis [1]): + (Synergy was also defined conventionally as ≧4-fold decrease in antibiotic concentration)
Δ (0.05 BE), MIC (S. epidermidis [1]; 0.05 μg/ml BisEDT): 4.00
Δ (0.1 BE), MBC (S. epidermidis [1]; 0.1 μg/ml BisEDT): 4.80
MIC (S. epidermidis [1]; BisEDT 0 μg/ml): 32 µg/mL
MBC (S. epidermidis [1]; BisEDT 0.0 μg/ml): 48 µg/mL
MIC (S. epidermidis [1]; BisEDT 0.05 μg/ml): 8 µg/mL
MBC (S. epidermidis [1]; BisEDT 0.1 μg/ml): 10 µg/mL
MIC (S. epidermidis [1]; BisEDT 0.1 μg/ml): 1 µg/mL
Δ (0.05 BE), biofilm prevention ([2]; 0.05 μg/ml BisEDT): 2.8
Biofilm Prevention (antibiotic concentration) ([2]; BisEDT 0 μg/ml): 28 µg/mL
Biofilm Prevention (antibiotic concentration) ([2]; BisEDT 0.05 μg/ml): 10 µg/mL
Biofilm Prevention (antibiotic concentration) ([2]; BisEDT 0.1 μg/ml): 1 µg/mL
MIC (MRSA clinical isolates [3]; BisEDT 0 μg/mL): 93 ± 75 µg/mL
MIC (MRSA clinical isolates [3]; BisEDT 0.025 μg/mL): 99 ± 76 µg/mL
MIC (MRSA clinical isolates [3]; BisEDT 0.05 μg/mL): 90 ± 60 µg/mL
MIC (MRSA clinical isolates [3]; BisEDT 0.1 μg/mL): 45 ± 32 µg/mL
BPC ([4]; BisEDT 0 μg/mL): 109 ± 86 µg/mL
BPC ([4]; BisEDT 0.025 μg/mL): 76 ± 86 µg/mL
BPC ([4]; BisEDT 0.05 μg/mL): 76 ± 105 µg/mL
BPC ([4]; BisEDT 0.1 μg/mL): 34 ± 28 µg/mL
Antibiotic action on MRSA lawn with subMIC BisEDT [5]: enhanced antibiotic action
Change of biofilm prevention concentration (BPC) (S. epidermidis biofilm): modest decreases
Reduction in MBC with subMIC BisEDT (S. epidermidis [6]): 4- to 5 fold
MIC change (growth inhibition) with BisEDT (S. epidermidis [6]; 0.1 μg/ml (0.5 μM) BisEDT): resistance was reversed to clinically relevant levels
MIC Standards, R (resistance) (MRSA clinical isolates [7]): ≧32 μg/ml
MIC Standards, S (antibiotic sensitivity) (MRSA clinical isolates [7]): ≦8 μg/ml

CO/N=C(\C(=O)N[C@@H]1C(=O)N2C(C(=O)[O-])=C(C[N+]3(C)CCCC3)CS[C@H]12)c1csc(N)n1 [Cefepime]
Isolates in which BisEDT significantly enhanced inhibitory activity of cefepime (MRSA clinical isolates [3]; BisEDT at 0.1 μg/ml, 12 cefepime-resistant MRSA): 11 of 12
MIC (MRSA clinical isolates [3]; BisEDT 0 μg/mL): 45 ± 32 µg/mL
MIC (MRSA clinical isolates [3]; BisEDT 0.025 μg/mL): 32 ± 28 µg/mL
MIC (MRSA clinical isolates [3]; BisEDT 0.05 μg/mL): 37 ± 24 µg/mL
MIC (MRSA clinical isolates [3]; BisEDT 0.1 μg/mL): 9.3 ± 6.1 µg/mL
FIC, BisEDT and cefepime (MRSA clinical isolates [3]; cefepime-resistant MRSA isolates): < 0.5
BPC ([4]; BisEDT 0 μg/mL): 24 ± 37 µg/mL
BPC ([4]; BisEDT 0.025 μg/mL): 27 ± 28 µg/mL
BPC ([4]; BisEDT 0.05 μg/mL): 18 ± 16 µg/mL
BPC ([4]; BisEDT 0.1 μg/mL): 5.0 ± 7.3 µg/mL
Antibiotic action on MRSA lawn with subMIC BisEDT [5]: enhanced antibiotic action
FICI, single-point BisEDT-antibiotic combination (Escherichia coli; EC 102): 0.87
FICI, single-point BisEDT-antibiotic combination (Escherichia coli; EC 2232): 0.96
FICI, single-point BisEDT-antibiotic combination (Klebsiella pneumoniae): 1.11
FICI, single-point BisEDT-antibiotic combination (Pseudomonas aeruginosa): 0.62
FICI, single-point BisEDT-antibiotic combination (Burkholderia cepacia): 1.34
FICI, single-point BisEDT-antibiotic combination (Bukholderia multivorans): 0.96
FICI, single-point BisEDT-antibiotic combination (Acinetobacter baumanii): 0.71
MIC (μg/mL) Alone (P. aeruginosa; P. aeruginosa 103): 1 µg/mL
MIC (μg/mL) Alone (P. aeruginosa; P. aeruginosa 1479): 8 µg/mL
MIC (μg/mL) Alone (P. aeruginosa; P. aeruginosa 2566): 16 µg/mL
MIC (P. aeruginosa; P. aeruginosa 103): 2 µg/mL
MIC (P. aeruginosa; P. aeruginosa 1381): 32 µg/mL
MIC (P. aeruginosa; P. aeruginosa 1384): 2 µg/mL
MIC (P. aeruginosa; P. aeruginosa 1474): 2 µg/mL
MIC (P. aeruginosa; P. aeruginosa 1479): 4 µg/mL
MIC (P. aeruginosa; P. aeruginosa 2566): 8 µg/mL
MIC (P. aeruginosa; P. aeruginosa 2568): 2 µg/mL
MIC Standards, R (resistance) (MRSA clinical isolates [7]): ≧32 μg/ml
MIC Standards, S (antibiotic sensitivity) (MRSA clinical isolates [7]): ≦8 μg/ml
